Values after ≈ are worked out from the molar mass of the structure shown. Active and inactive are the calls of the source. The rule behind the calls is not given here.
tested on: Mycobacterium tuberculosis; assay: Antimycobacterial activity against Mycobacterium tuberculosis H37Rv by BACTEC radiometric growth assay; format: functional; conditions: not given

Row | Compound | MIC [mg/L]
1 | CCCCCCCCC[S@+]([O-])CC(N)=O | 25 (≈ 107 µM)
2 | CCCCCCCCS(=O)(=O)CC(=O)OC | > 25
3 | C/C=C/C/C=C/CCC(=O)[C@H]1O[C@H]1C(N)=O [CERULENIN] | 0.5 to 1.5 (≈ 2.24 to 6.72 µM)
4 | C.CCCCCCCCC[S+]([O-])CC(=O)OC (racemic) | > 25
5 | CCCCCCCCS(=O)(=O)NC(N)=O | > 25
6 | CCCCCCCCCC[S+]([O-])CCC(N)=O (stereo not drawn) | 6.25 (≈ 23.9 µM)
7 | CCCCCCCC[S+]([O-])CC(=O)OCc1ccccc1 (stereo not drawn) | 6.25 (≈ 20.1 µM)
8 | CCCCCC/C=C/S(=O)(=O)CC(N)=O | 12.5 (≈ 53.6 µM)
9 | CCCCCCCCCCP(=O)([O-])CCC(N)=O.[K+] | > 50
10 | CC(=O)Nc1ccc(S(=O)(=O)c2ccc(NC(C)=O)c(Cl)c2)cc1 | > 25
11 | CCCCCCCCC[S@@+]([O-])CC(=O)OC | > 25
12 | C.CCCCCCCCC[S+]([O-])CC(N)=O (racemic) | 25
13 | CCCCCCCCC[S+]([O-])CC(=O)OC (stereo not drawn) | 6.25 (≈ 25.2 µM)
14 | CC(C)CCCC(C)CCS(=O)(=O)CC(N)=O (stereo not drawn) | 6.25 (≈ 23.7 µM)
15 | CCCCCCCC/C=C/S(=O)(=O)CC(N)=O | 12.5 (≈ 47.8 µM)
16 | CCCCCCCCCCSCCC(N)=O | 25 (≈ 102 µM)
17 | NC(=O)c1cnccn1 [PYRAZINAMIDE] | 100 (≈ 812 µM)
18 | CCCCCCCC[S+]([O-])CC(=O)O (stereo not drawn) | > 25

tested on: Mycolicibacterium smegmatis; assay: Antimicrobial activity against Mycobacterium smegmatis ATCC 607; format: functional; conditions: not given

Row | Compound | MIC [µM]
19 | O.O.OC[C@H]1O[C@@H](n2cnc3c(-c4cccs4)ncnc32)[C@H](O)[C@@H]1O | 4
20 | Cl.Cl.OC[C@H]1O[C@@H](n2cnc3c(-c4cccs4)ncnc32)[C@H](O)[C@@H]1O | 0.7
21 | O.OC[C@H]1O[C@@H](n2cnc3c(-c4cccs4)ncnc32)[C@H](O)[C@@H]1O | 1.75
22 | Cl.OC[C@H]1O[C@@H](n2cnc3c(-c4cccs4)ncnc32)[C@H](O)[C@@H]1O | 0.4

same assay, conditions: Mycolicibacterium smegmatis, ATCC 607; read-out: MIC

Row | Compound | MIC [µM]
23 | OC[C@H]1O[C@@H](n2nnc3c(-c4cccs4)ncnc32)[C@H](O)[C@@H]1O | 20 (≈ 6.71 µg/mL)
24 | OC[C@H]1O[C@@H](n2cnc3c(-c4ccns4)ncnc32)[C@H](O)[C@@H]1O | 3 (≈ 1.01 µg/mL)

tested on: Mycobacterium tuberculosis; assay: Antitubercular activity against Mycobacterium tuberculosis H37Rv ATCC 27294 assessed as growth inhibition at 6.25 ug/ml by microplate alamar blue assay relative to control; format: functional; conditions: not given

Row | Compound | inhibition at 6.25 µg/mL [%]
25 | c1coc(-c2[nH]cnc3ncnc2-3)c1 | 6
26 | CC(=O)OC[C@H]1O[C@@H](n2cnc3c(Cl)ncnc32)[C@H](OC(C)=O)[C@@H]1OC(C)=O | 4
27 | OC[C@H]1O[C@@H](n2cnc3c(-c4ccco4)ncnc32)[C@H](O)[C@@H]1O | 0
28 | OC[C@H]1O[C@@H](n2cnc3c(-c4cccs4)ncnc32)[C@H](O)[C@@H]1O | 6

tested on: Mycobacterium tuberculosis; assay: Antitubercular activity against Mycobacterium tuberculosis infected in mouse assessed as reduction in microbial load at 2 to 3 mg ip, pretreated for 48 to 72 hrs followed by microbial infection and subsequent compound dosing at 48 to 72 hrs post-infection measured 24 to 32 days post-infection relative to control; format: functional; set-up: scale not given: the % may be the effect or the level left; conditions: not given

Row | Compound | Activity
29 | CC(C)(C)c1cc2c(O)c(c1)Cc1cc(C(C)(C)C)cc(c1OCCOCCOCCOCCOCCOCCO)Cc1cc(C(C)(C)C)cc(c1O)Cc1cc(C(C)(C)C)cc(c1OCCOCCOCCOCCOCCOCCO)Cc1cc(C(C)(C)C)cc(c1O)Cc1cc(C(C)(C)C)cc(c1OCCOCCOCCOCCOCCOCCO)Cc1cc(C(C)(C)C)cc(c1O)Cc1cc(C(C)(C)C)cc(c1OCCOCCOCCOCCOCCOCCO)C2 | 20 - 50%
30 | CC(C)(C)c1cc2c(O)c(c1)Cc1cc(C(C)(C)C)cc(c1OCCOCCOCCOCCOCCOCCOCCOCCOCCOCCOCCOCCO)Cc1cc(C(C)(C)C)cc(c1O)Cc1cc(C(C)(C)C)cc(c1OCCOCCOCCOCCOCCOCCOCCOCCOCCOCCOCCOCCO)Cc1cc(C(C)(C)C)cc(c1O)Cc1cc(C(C)(C)C)cc(c1OCCOCCOCCOCCOCCOCCOCCOCCOCCOCCOCCOCCO)Cc1cc(C(C)(C)C)cc(c1O)Cc1cc(C(C)(C)C)cc(c1OCCOCCOCCOCCOCCOCCOCCOCCOCCOCCOCCOCCO)C2 | 20 - 50%
31 | CC(C)(C)c1cc2c(O)c(c1)Cc1cc(C(C)(C)C)cc(c1O)Cc1cc(C(C)(C)C)cc(c1O)Cc1cc(C(C)(C)C)cc(c1O)Cc1cc(C(C)(C)C)cc(c1O)Cc1cc(C(C)(C)C)cc(c1O)C2 | inactive
32 | CC(C)(C)CC(C)(C)c1cc2c(O)c(c1)Cc1cc(C(C)(C)CC(C)(C)C)cc(c1OCCOCCOCCOCCOCCOCCO)Cc1cc(C(C)(C)CC(C)(C)C)cc(c1O)Cc1cc(C(C)(C)CC(C)(C)C)cc(c1OCCOCCOCCOCCOCCOCCO)Cc1cc(C(C)(C)CC(C)(C)C)cc(c1O)Cc1cc(C(C)(C)CC(C)(C)C)cc(c1OCCOCCOCCOCCOCCOCCO)Cc1cc(C(C)(C)CC(C)(C)C)cc(c1O)Cc1cc(C(C)(C)CC(C)(C)C)cc(c1OCCOCCOCCOCCOCCOCCO)C2 | 20 - 50%
33 | Oc1c2cc(-c3ccccc3)cc1Cc1cc(-c3ccccc3)cc(c1O)Cc1cc(-c3ccccc3)cc(c1O)Cc1cc(-c3ccccc3)cc(c1O)Cc1cc(-c3ccccc3)cc(c1O)Cc1cc(-c3ccccc3)cc(c1O)Cc1cc(-c3ccccc3)cc(c1O)Cc1cc(-c3ccccc3)cc(c1O)C2 | 20 - 50%
34 | O=S(=O)(O)c1cc2c(O)c(c1)Cc1cc(S(=O)(=O)O)cc(c1O)Cc1cc(S(=O)(=O)O)cc(c1O)Cc1cc(S(=O)(=O)O)cc(c1O)Cc1cc(S(=O)(=O)O)cc(c1O)Cc1cc(S(=O)(=O)O)cc(c1O)Cc1cc(S(=O)(=O)O)cc(c1O)Cc1cc(S(=O)(=O)O)cc(c1O)C2 | 50 - 80%
35 | Oc1c2cc(-c3ccccc3)cc1Cc1cc(-c3ccccc3)cc(c1O)Cc1cc(-c3ccccc3)cc(c1O)Cc1cc(-c3ccccc3)cc(c1O)Cc1cc(-c3ccccc3)cc(c1O)Cc1cc(-c3ccccc3)cc(c1O)Cc1cc(-c3ccccc3)cc(c1O)C2 | 20 - 50%
36 | CCCCCCCCCCCCOc1c2cc(S(=O)(=O)O)cc1Cc1cc(S(=O)(=O)O)cc(c1OCCCCCCCCCCCC)Cc1cc(S(=O)(=O)O)cc(c1OCCCCCCCCCCCC)Cc1cc(S(=O)(=O)O)cc(c1OCCCCCCCCCCCC)Cc1cc(S(=O)(=O)O)cc(c1OCCCCCCCCCCCC)Cc1cc(S(=O)(=O)O)cc(c1OCCCCCCCCCCCC)Cc1cc(S(=O)(=O)O)cc(c1OCCCCCCCCCCCC)Cc1cc(S(=O)(=O)O)cc(c1O)C2 | 50 - 80%
37 | CC(C)(C)c1cc2c(O)c(c1)Cc1cc(C(C)(C)C)cc(c1O)Cc1cc(C(C)(C)C)cc(c1O)Cc1cc(C(C)(C)C)cc(c1O)C2 | inactive
38 | CC(C)(C)c1cc2c(OCCOCCOCCOCCOCCOCCOCCOCCOCCOCCOCCOCCO)c(c1)Cc1cc(C(C)(C)C)cc(c1OCCOCCOCCOCCOCCOCCOCCOCCOCCOCCOCCOCCO)Cc1cc(C(C)(C)C)cc(c1OCCOCCOCCOCCOCCOCCOCCOCCOCCOCCOCCOCCO)Cc1cc(C(C)(C)C)cc(c1OCCOCCOCCOCCOCCOCCOCCOCCOCCOCCOCCOCCO)Cc1cc(C(C)(C)C)cc(c1OCCOCCOCCOCCOCCOCCOCCOCCOCCOCCOCCOCCO)Cc1cc(C(C)(C)C)cc(c1OCCOCCOCCOCCOCCOCCOCCOCCOCCOCCOCCOCCO)Cc1cc(C(C)(C)C)cc(c1OCCOCCOCCOCCOCCOCCOCCOCCOCCOCCOCCOCCO)Cc1cc(C(C)(C)C)cc(c1OCCOCCOCCOCCOCCOCCOCCOCCOCCOCCOCCOCCO)C2 | 50 - 100%
